From patent US11934044B2, “WS12-releasing contact lens” (CooperVision International Limited, priority 2021, dated 2024)

Test: WS12 leaching from lens into PBS packaging solution during autoclave (HPLC)
Format: physicochemical
Settings: standard contact lens sterilization and storage conditions
Description: Silicone hydrogel contact lenses were prepared by curing the formulation for stenfilcon A in contact lens molds. The cured stenfilcon A was removed from the molds and extracted by immersing them for 215 minutes in ethanol (EtOH) containing WS12 (Tocris Bioscience) in the loading concentrations shown in Table I. The lenses were removed from the EtOH and washed in DI water for approximately 6 minutes, followed by two exchanges of DI water for approximately 30 minutes each. The lenses were transferred to 6 mL glass vials containing 3 mL phosphate buffered saline at pH 7.5 (0.78 wt. % NaCl, 0.05 wt. % sodium phosphate monobasic, and 0.36 wt. % sodium phosphate dibasic), referred to herein as PBS. The vials were sealed and autoclaved.
Each autoclaved lens was transferred to a vial containing 3 ml EtOH and stored overnight on a 150 rpm shaker at room temperature to extract WS12 from the lens. The EtOH extracts and the PBS in which the lenses were autoclaved were submitted for analysis by HPLC (detection wavelength=250 nm) against calibration standards to determine the average amount of WS12 loaded into each (n=5) and whether the WS12 leaches from the lens during autoclave.

stability of WS12 in hydrogel lens material during sterilization and storage: without degradation or leaching
SMILES: COc1ccc(NC(=O)C2CC(C)CCC2C(C)C)cc1 (stereo not shown) [WS12, N-(4-Methoxyphenyl)-5-methyl-2-(1-methylethyl)cyclohexanecarboxamide]
